Data reported in patent publication US10143668B2, “Hydroxy-substituted amino and ammonium derivatives and their medical use” (GRI BIO, INC., priority 2011, dated 2018).
“And” between values parts separate entries of the source, which are not always exact repeats. Identical values can stand only once. Counter-ions that a name gives are not always drawn. Like-named read-outs stand apart in the source and are kept apart here. Marks after values point to notes of the source that are not given here.

Columns and labels:
[1] = tested on: RBL-2H3 cells; test: Inhibition of mast cell degranulation (β-hexosaminidase release); assay type: cell-based; details: Rattus norvegicus, RBL-2H3 cells sensitized with anti-DNP IgE, triggered with DNP-HSA
Source text: Mast cells are key effector cells involved in allergic and inflammatory diseases, and the Rat Basophilic Leukemia clone 2H3 (RBL-2H3) cell line is a commonly used model of allergen dependent immune modulator release (degranulation) in mast cells. On their surface, they express the high affinity receptor for IgE (FcεRI) Upon binding of antigen-specific IgE to the receptor, cells become sensitized to the IgE specific antigen (allergen). When IgE-sensitized cells then encounter multivalent antigen, the antigen clusters IgE-FcεRI complexes and initiates a signal transduction cascade that leads to degranulation, that is, the release of inflammatory mediators, such as cytokines, eicosanoids, histamine and enzymes. The assay can be used as a screening method to identify immune-modulating compounds, in particular compounds useful in the medical management of allergic and inflammatory diseases and asthma. β-hexosaminidase was previously shown to be released with the same kinetics as histamine (Schwartz et al., J Immunology; 123:1445-1450 (1979)), thus offering a simple means to monitor degranulation. The RBL-2H3 cell line has been successfully used to identify compounds with anti-allergic activity (Choo et al. Planta Med., 69:518-522 (2003)).
Cell Culture: RBL-2H3 cells obtained from the German Collection of Microorganisms and Cell Cultures (ACC312) (Braunschweig, Germany) were maintained in 70% Minimum Essential Medium with Earle's Salts, 20% RPMI 1640 Medium, 10% FBS and 2 mM L-glutamine in 95% air/5% CO2 at 37° C. and routinely checked for mycoplasma contamination. Cells were passaged every 3-4 days; after washing cells once with 35 ml PBS cells were incubated 8 min with 5 ml 0.05% Trypsin-EDTA solution at 37° C. Cells were removed from the incubator, 15 ml culture medium was added and cells were resuspended by repeated pipetting.
Cell seeding: cells were harvested with Trypsin-EDTA as described and 50-100 μl cell suspension seeded into Costar CellBind 24 well cluster plates (no. 3337). Plates were kept for 30 min at RT under the sterile hood before being transferred to the incubator. Cells were used within one or two days after seeding.
For sensitization, cells for immediate use were sensitized 6-12 h after plating; cells to be used the following day were sensitized 26-38 h after plating. Culture plates were removed from the incubator and checked for cell growth and contamination. The medium was discarded and cells were sensitized with anti-DNP IgE (0.4 μg/ml) in 0.4 ml culture medium overnight. Following overnight sensitization, cells were washed with 0.8 ml pre-warmed TyB and 0.38 ml test compound or vehicle control (supplemented or not with 1% FBS) were added to duplicate wells. Samples were adjusted to contain 1% vehicle for test compounds dissolved in organic solvents. Cells were incubated for 1 h at 37° C. At the end of the incubation period, cells were routinely stimulated with 20 μl DNP-HSA (2 μg/ml; final concentration 0.1 μg/ml) diluted in TyB and cells were incubated for 15 min at 37° C. Alternatively, cells were stimulated with 20 μl 5 μM ionomycin (final concentration 0.25 μM) or 20 μl 5 μM thapsigargin (final concentration 0.25 μM), both in the absence or presence of 20 nM PMA (final concentration). […]
MUG substrate solution, 100 μl, were added to supernatant and lysate samples and plates were incubated 30 min at 37° C. […] Fluorescene was measured at 365 nm excitation and 440 nm emmission wavelengths. […]

[2] = tested on: RBL-2H3 cells; test: Maximum tolerated concentration (cytotoxicity by lactate dehydrogenase release); assay type: cell-based, rat; details: for MTC (maximum tolerated concentration): highest concentration not causing cytotoxicity (LDH release); for SI (safety index): ratio between MTC and IC50
Source text: The safety index (SI) of a test compound is the ratio between the maximum tolerated concentration and the IC50 and is used as a measure of the relative safety of the test compound.

[3] = tested on: DTH response in mice; assay type: in vivo; details: 24 h after challenge
Description: The anti-inflammatory and anti-allergic effects of compound 1a was assessed in a mouse model of skin delayed-type hypersensitivity (DTH) reactions and compared to a vehicle control and to the reference drug, dexamethasone. DTH reactions are antigen-specific cell-mediated immune responses, driven primarily by T helper type 1 (Th1) cells, similar to the tuberculin immunization response. The immune reaction induced by an ovalbumin challenge to animals previously sensitized with ovalbumin in Complete Freund's Adjuvant, is characterized by swelling (edema) at the site of challenge, e.g. the mouse ear. Dexamethasone, an anti-inflammatory steroid, reduces cell-mediated immune responses and was employed to validate the responsiveness of the assay to pharmacological treatment.
Female BALB/cJW mice were bred at the University of Lodz, Lodz, Poland and housed in groups of 8 in makrolon cages with a 12 h light-dark cycle. Mice were given free access to food (Agropol S. j., Motycz, Poland) and water.
Sensitization: The protein antigen, ovalbumin, was reconstituted in PBS at 4 mg/ml. An ovalbumin-CFA emulsion was prepared by mixing the protein solution with the CFA suspension at a ratio of 1:1, using two Luer-lock syringes. The emulsion was tested by putting a drop of emulsion onto PBS; if the emulsion remained as a tight droplet on the PBS, the emulsion was deemed ready. Mice were sensitized by subcutaneously injecting 25 μL of emulsion into each side of the tail (100 μg ovalbumin per mouse).
Challenge: On the sixth day after sensitization, DTH was elicited by challenging animals subcutaneously (gauge 30 needle, B. Braun Melsungen, Melsungen, Germany) in the left ears with 10 μL of a 1% suspension of heat-aggregated ovalbumin (HOVA) (100 μg ovalbumin per mouse). The right ears were administered subcutaneously with PBS and served to determine the individual differences in ear thicknesses. HOVA was prepared by heating a 5% solution of ovalbumin in saline for 1 h at 80° C. with occasional swirling. After cooling to room temperature and centrifugation (400 g, 10 min at 4° C.), the pellet was washed twice with saline, resuspended at 2% in PBS and aliquots stored at −30° C. Before injection, HOVA was diluted with an equal volume of PBS and sonicated. Ear thickness was measured with a precise spring-loaded caliper (Art. No. 7309, Mitutoyo, Kawasaki, Japan) before challenge, and 24 h after challenge.
Sensitization, challenge and ear thickness measurement were performed under anesthesia (ketamine 80 mg/kg plus xylazine 8 mg/kg, intraperitoneally).
The anti-inflammatory effects of compound 1a were compared to a vehicle control (0.5% methyl cellulose solution) and to the reference drug, dexamethasone. Test compound was given at 25 or 100 mg/kg orally by gavage (Art. No. 432093, Harvard Apparatus GmbH, March-Hugstetten, Germany) 16 h and 3 h before sensitization and then twice daily with the final dose given 3 h prior to ear challenge (a total of 14 administrations). Dexamethasone was given at 0.1 or 1 mg/kg orally by gavage 3 h before sensitization and once daily with the final dose given 3 h prior to antigen challenge (a total of 7 administrations). All administrations were given in a volume of 10 mL/kg.
To account for individual variability, the increase in right ear thickness, before and 24 h after administration of PBS, was subtracted from the HOVA-induced increase in left ear thickness. […]
Mean and standard deviation (SD) were calculated from individual ear edema values. […]

[4] = tested on: allergic contact dermatitis response in mice; test: Allergic contact dermatitis (TDI) model in mice, mouse ear swelling test; assay type: in vivo
Description: The anti-inflammatory and anti-allergic effects of compound 1a were assessed in a mouse model of allergic contact dermatitis, a response driven primarily by T helper type 2 (Th2) cells. […] In this model, an allergic dermatitis response is obtained by sensitizing mice to TDI and subsequently challenging them with antigen by topical administration onto the ears. A quantitative assessment of anti-inflammatory and anti-allergic effects of topically or orally administered test compounds is possible by measuring the resulting ear swelling.
Female BALB/c-mice were obtained from Charles River (Sulzfeld, Germany) at age 8 weeks. All animals were housed in groups of eight per cage at 22° C. with a 12 h light/dark-cycle. Water and a standard diet (Altromin, Lage/Lippe, Germany) were available ad libitum. All animals were acclimatized for one week before experimental procedures were commenced.
Experimental procedures for BALB/c mice housing, TDI sensitization and challenge, and measurement of ear thickness were performed as previously described (Baumer et al., J Pharm Pharmacol. 55:1107-1114 (2003)) with the following modifications. For active sensitization, 100 μL of 5% (w/v) TDI was administered to the shaved and stripped abdominal epidermis on day one, and for the next three consecutive days, 50 μL of 5% (w/v) TDI was applied. The allergic reaction was boosted 21 days later by application of 50 μL of 0.5% (w/v) TDI. For the examination of test compound effects, the left ears were used for the TDI challenge (20 μL of 0.5% in acetone) and ear thickness measured 3 h before and 24 h after challenge.
Administration time: to determine optimal time for administration treatment groups were treated orally by gavage with 100 mg/kg of compound 1a (suspended in 0.5% tylose, 10 mL/kg) 1, 4 or 16 h before topical TDI challenge. One group was treated with 100 mg/kg miltefosine orally, 16 h before challenge (based on available data for optimal administration time for miltefosine) and vehicle treated mice received tylose (10 mL/kg) orally, 4 h before challenge.
Comparison with dexamethasone: one group of mice was treated orally with compound 1a at 100 mg/kg suspended in 0.5% tylose, 4 h before topical TDI challenge. Vehicle treated mice received 0.5% tylose orally 4 h before challenge. As a positive control, dexamethasone was administered in saline solution at 1 mg/kg or 3 mg/kg, 2 h and 30 min before challenge and 1 h after challenge. The dose and dosing scheme for dexamethasone was based on previous experience showing a maximal effect in this model.
[…] The solution was applied, 2 h before topical TDI challenge by administration of 10 μl onto each of the inner and outer surfaces of the left ears. A vehicle group (n=5) was treated with propyleneglycol. As a positive control, diflorasone diacetate was administered at 0.01% (low dose) and 0.05% (high dose) in 20 μl acetone, 2 h before challenge. A basal control group was left untreated.
Mean and standard error of the mean (SEM) were calculated from individual ear edema values. Statistical evaluation was a one-way analysis of variance (ANOVA) (if the test for normal distribution was passed) or the Kruskal-Wallis one-way ANOVA on Ranks (if the normal distribution test failed). Both were followed by a post-hoc test (Dunnett's method or Dunn's test, respectively). A p<0.05 was considered to be significant.

[5] = tested on: collagen type II-induced arthritis (CIA) in mice; details: prophylactic, 0.3 mg/kg intraperitoneally once daily

SMILES: CCCCCCCCCCCCCCN(C)CC(=O)N(C)C[C@H](O)[C@@H](O)[C@H](O)[C@H](O)CO [Compound 1b, N-(2-(Methyl(tetradecyl)amino)acetyl)-N-methyl-D-glucamine hydrotrifluoroacetate]
- IC50 [1]: 4.9 µM
- MTC (maximum tolerated concentration) [2]: 50 µM
- SI (safety index) [2]: 10.2

SMILES: CCCCCCCCCCCCN(C)CC(=O)N(C)C[C@H](O)[C@@H](O)[C@H](O)[C@H](O)CO [Compound 1c, N-(2-(Methyl(dodecyl)amino)acetyl)-N-methyl-D-glucamine hydrotrifluoroacetate]
- IC50 [1]: 12.3 µM
- MTC (maximum tolerated concentration) [2]: 100 µM
- SI (safety index) [2]: 8.1

SMILES: CCCCCCCCCCCCCC[N+](C)(C)CC(=O)N(C)CC(O)CO (stereo not drawn) [Compound 1d, N-(2-(Dimethyl(tetradecyl)ammonio)acetyl)-N-methyl-2,3-dihydroxypropylamine trifluoroacetate]
- IC50 [1]: 3.1 µM
- MTC (maximum tolerated concentration) [2]: 75 µM
- SI (safety index) [2]: 24.2

SMILES: C[C@@H]1C[C@H]2[C@@H]3CCC4=CC(=O)C=C[C@]4(C)[C@@]3(F)[C@@H](O)C[C@]2(C)[C@@]1(O)C(=O)CO [Dexamethasone, reference compound]
- Inhibition of mouse ear swelling ([3]; 0.1 mg/kg orally once daily): 14%
- Inhibition of mouse ear swelling ([3]; 1.0 mg/kg orally once daily): 53%
- Inhibition of mouse ear swelling ([4]; comparison with dexamethasone, 1 mg/kg oral): 78.6*** %
- Inhibition of mouse ear swelling ([4]; comparison with dexamethasone, 1 mg/kg oral, listed as dexamethasone): 78%
- Inhibition of mouse ear swelling ([4]; comparison with dexamethasone, 3 mg/kg oral): 87.1*** %
- Inhibition of mouse ear swelling ([4]; comparison with dexamethasone, 3 mg/kg oral, listed as dexamethasone): 87%
- clinical signs of arthritis [5]: nearly completely suppressed

SMILES: CCCCCCCCCCCCCCCCOP(=O)([O-])OCC[N+](C)(C)C [Miltefosine, reference compound]
- IC50 [1]: 4.2 µM
- MTC (maximum tolerated concentration) [2]: 25 µM
- SI (safety index) [2]: 6.0
- inhibitory efficacy relative to 1a at its optimal administration time of 4 h ([4]; 100 mg/kg oral, 16 h before challenge): 75%
- Inhibition of mouse ear swelling ([4]; administration time study, 100 mg/kg oral, 16 h before TDI challenge): 47% and 47.3^§ %
